Assay results from patent US6897213B1, “Heterocycles as cholecystokinin (CCK) ligands” (Warner-Lambert Company, priority 1995, dated 2005).

Columns and labels:
[1] = target: T1, CCK-A receptor (Homo sapiens, UniProt P32238); assay: CCK-A receptor binding affinity
T1 sequence (P32238 1-428): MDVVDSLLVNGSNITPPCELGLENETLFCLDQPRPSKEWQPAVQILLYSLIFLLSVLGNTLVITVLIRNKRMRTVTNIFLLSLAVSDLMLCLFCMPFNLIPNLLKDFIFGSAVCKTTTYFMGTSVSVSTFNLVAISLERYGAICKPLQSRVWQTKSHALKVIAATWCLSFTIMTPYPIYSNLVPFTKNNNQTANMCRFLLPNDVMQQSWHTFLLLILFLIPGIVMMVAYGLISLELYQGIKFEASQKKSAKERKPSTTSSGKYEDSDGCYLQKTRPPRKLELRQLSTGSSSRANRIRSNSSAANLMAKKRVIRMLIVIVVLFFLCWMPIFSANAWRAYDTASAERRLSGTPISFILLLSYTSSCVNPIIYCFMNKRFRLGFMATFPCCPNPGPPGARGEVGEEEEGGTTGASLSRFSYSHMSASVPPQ
From the text: (§1) The following table represents the CCK-A and CCK-B receptor binding affinities of the compounds.
(§2) The testing procedures are disclosed in Hays et al, Neuropeptides 1:53-62, 1980; and Satuer et al, Science 208:1155-1156, 1980.

[2] = target: T2, CCK-B receptor (Mus musculus, UniProt P56481); assay: CCK-B receptor binding affinity (tritiated-pentagastrin displacement, mouse cerebral cortical membranes); conditions: 2 nM tritiated-pentagastrin, Ki by Cheng-Prusoff
T2 construct: from tissue; host or cells: mouse (male CFLP) cerebral cortex membranes
T2 sequence (P56481 1-453): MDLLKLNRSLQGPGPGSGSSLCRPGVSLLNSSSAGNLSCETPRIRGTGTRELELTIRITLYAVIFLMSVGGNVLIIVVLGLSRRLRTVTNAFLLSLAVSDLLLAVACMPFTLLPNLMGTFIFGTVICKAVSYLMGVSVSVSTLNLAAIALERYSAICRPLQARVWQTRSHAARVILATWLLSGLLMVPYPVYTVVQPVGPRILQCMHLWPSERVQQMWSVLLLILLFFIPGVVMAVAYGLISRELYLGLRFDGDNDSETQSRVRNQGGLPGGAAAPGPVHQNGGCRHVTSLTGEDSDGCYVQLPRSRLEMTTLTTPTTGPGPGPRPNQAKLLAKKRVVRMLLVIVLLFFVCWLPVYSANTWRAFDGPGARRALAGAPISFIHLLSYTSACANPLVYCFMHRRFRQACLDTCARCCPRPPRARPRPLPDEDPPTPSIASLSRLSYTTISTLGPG
Protocol: The biological activity of compounds of the present invention may be evaluated by employing an initial screening test which rapidly and accurately measures the binding of the tested compound to known CCK receptor sites. […] (See Hays et al, Neuropeptides 1:53-62, 1980; and Satuer et al, Science 208:1155-1156, 1980).
In this screening test, the cerebral cortices taken from male CFLP mice weighing between 30-40 g were dissected on ice, weighed, and homogenized in 10 volumes of 50 mM Tris-HCl buffer (pH 7.4 at 0-4° C.). The resulting suspension was centrifuged, the supernate was discarded, and the pellet was washed by resuspension in Tris-HCl buffer followed by recentrifugation. The final pellet was resuspended in 20 volumes of […] buffer (pH 7.2 at 23° C.) containing 130 mM NaCl, […], […], 1 […].
In saturation studies, cerebral cortical membranes were incubated at 23° C. for 120 minutes in a final volume of 500 μL of Hepes incubation buffer (pH 7.2) together with 0.2-20 nM tritiated—pentagastrin (Amersham International, England).
In the displacement experiments, membranes were incubated with a single concentration (2 nM) of ligand, together with increasing concentrations (10^11 to 10^14 M) of competitive test compound. In each case, the nonspecific binding was defined as that persisting in the presence of the unlabeled octapeptide CCK26-33 (10^−6M).
Following incubation, radioactivity bound to membranes was separated from that free in solution by rapid filtration through Whatman GF/B filters and washed three times with 4 mL of ice cold Tris-HCl buffer. Filters from samples incubated with tritiated-pentagastrin were placed in polyethylene vials with 4 mL of scintillation cocktail, and the radioactivity was estimated by liquid scintillation spectrometry (efficiency 47-52%).
The specific binding to CCK receptor sites was defined as the total bound tritiated-pentagastrin minus the amount of tritiated-pentagastrin bound in the presence of 10^−6 octapeptide, CCK26-33.
Saturation curves for specific tritiated-pentagastrin binding to mouse cortical membranes were analyzed by the methods of Scatchard (Ann. New York Acad. Sci. 51:660-672, 1949, and Hill (J. Physiol. 40:IV-VIII, 1910), to provide estimates for the maximum number of binding sites (Bmax) and the equilibrium dissociation constant (Ka).
In displacement experiments, inhibition curves were analyzed by either logit-log plots or the iterative curve fitting computer program ALLFIT (DeLean, Munson and Redbard, 1978) to provide estimates of the IC50 and nH (apparent Hill coefficient values).
The inhibition constant (Ki) of the test compound was then calculated according to the Cheng-Prusoff equation: [formula] where [L] is the concentration of radiolabel and Ka is the equilibrium dissociation constant.
The Ki values for several representative compounds of the present invention are present in Table I.
as §1, §2

With `CC(C)Oc1cccc(-n2c(NNC(=O)Nc3ccc(Br)cc3)nc3ccccc3c2=O)c1` [No. 1, Hydrazinecarboxamide, N-(4-bromophenyl)-2-[3,4-dihydro-3-[3-(1-methylethoxy)-phenyl]-4-oxo-2-quinazolinyl]-] the Ki [1] was 3430 nM and the Ki [2] was 16 nM.

Compound `CC(C)Oc1cccc(-n2c(NNC(=O)Nc3cccc(C(=O)OC(C)(C)C)c3)nc3ccccc3c2=O)c1` [No. 7] has a Ki [1] of 3580 nM and a Ki [2] of 2 nM.

Work on `CC(C)Oc1cccc(-n2c(NNC(=O)Nc3ccc(Cl)cc3)nc3ccccc3c2=O)c1` [No. 13, Hydrazinecarboxamide, N-(4-Chlorophenyl)-2-[3,4-dihydro-3-[3-(1-methylethoxy)phenyl]-4-oxo-2-quinazolinyl]] yielded a Ki [1] of 3640 nM and a Ki [2] of 12.9 nM.

Compound `CC(C)Oc1cccc(-n2c(NNC(=O)Nc3cccc(C#N)c3)nc3ccccc3c2=O)c1` [No. 14, Hydrazinecarboxamide, N-(3-cyanohenyl)-2-[3,4-dihydro-3-[3-(1-methylethoxoy)phenyl]-4-oxo-2-quinazolinyl]-] has a Ki [1] of 5390 nM and a Ki [2] of 1.2 nM.

Compound `CC(C)Oc1cccc(-n2c(NNC(=O)NC3CCCCC3)nc3ccccc3c2=O)c1` [No. 15, Hydrazinecarboxamide, N-(cyclohexyl)-2-[3,4-dihydro-3-[3-(1-methylethoxy)phenyl]-4-oxo-2-quinazolinyl]-] has a Ki [1] of 17700 nM and a Ki [2] of 105 nM.

With `CCOC(=O)c1cccc(NC(=O)NNc2nc3ccccc3c(=O)n2-c2ccc(Cl)c(Cl)c2)c1` [No. 21] the Ki [1] was 1760 nM and the Ki [2] was 53.4 nM.

`CN(C)c1cccc(-n2c(NNC(=O)Nc3cccc(C#N)c3)nc3ccccc3c2=O)c1` [No. 40] was tested, and the Ki [1] was 5740 nM and the Ki [2] was 18.1 nM.
